Data on one molecule can be found in patent US20200360331A1, “COMPOSITIONS COMPRISING 15-HEPE AND/OR 15-HETrE AND METHODS OF TREATING OR PREVENTING CARDIOMETABOLIC DISEASE, METABOLIC SYNDROME, AND/OR RELATED DISEASES” (Afimmune Limited, priority 2019, published 2020).

One experiment relates to TIMP-1. Kind of experiment: UUO study: quantitative RT-PCR of kidney, TIMP-1. It counts as in vivo, C57BL/6 mice. The conditions noted are these: UUO mice kidney. As for the experimental part: (§1) Quantitative RT-PCR: Total ribonucleic acid (RNA) was extracted from kidney samples using RNAiso (Takara Bio, Japan) according to the manufacturer's instructions. One μg of RNA was reverse-transcribed using a reaction mixture containing […] (mM) of magnesium chloride (MgCl2) (F. Hoffmann-La Roche, Switzerland), 40 U RNase inhibitor (Toyobo, Japan), 0.5 mM dNTP (Promega, USA), 6.28 μM random hexamer (Promega), 5× first strand buffer (Promega), 10 mM dithiothreitol (Invitrogen, USA) and 200 U MMLV-RT (Invitrogen) in a final volume of 20 μL. The reaction was carried out for 1 hour at 37° C., followed by 5 minutes at 99° C. Real-time PCR was performed using real-time PCR DICE and TB Green™ Premix Ex Taq™ II (Takara Bio). To calculate the relative […] (mRNA) expression level, the expression of each gene (e.g., α-SMA, TIMP-1, TGF-β and Collagen Type 1) was normalized to that of reference gene 36B4 (gene symbol: Rplp0). Information regarding the PCR-primer sets and the plate layout are described in Tables 1 and 2.

The test system of a further experiment is Collagen Type 1. Kind of experiment: UUO study: quantitative RT-PCR of kidney, Collagen Type 1. It counts as in vivo, C57BL/6 mice. The conditions noted are these: UUO mice kidney. As for the experimental part: as §1
Experiment [1] concerns TβR-II (type II TGF-β receptor). Kind of experiment: Sucrose density gradient analysis in Mv1Lu cells, TβR-II. It counts as cell-based, mink. As for the experimental part: (§2) Sucrose gradient ultracentrifugation and confocal microscopy were used to identify 15-HEPE induced microdomain translocation of TGF-β receptors by sucrose. Sucrose density gradient analysis of TGF-β receptors was conducted in the plasma membranes of Mv1Lu cells (mink lung epithelial cell) treated with 100 μM of 15-HEPE and an equal volume of DMSO (dimethyl sulfoxide) at 37° C. for 0, 1, 4, and 24 hours, and the cell lysates from these treated cells were subjected to sucrose density gradient ultracentrifugation. The sucrose gradient fractions were then analyzed by Western blot analysis using anti-TβR-I (type I TGF-β receptor), anti-TβR-II (type II TGF-β receptor), anti-TβR-III (type III TGF-β receptor, betaglycan), anti-EGFR (epidermal growth factor receptor), and anti-caveolin-1 antibodies. The lipid raft/caveolae, and non-lipid raft microdomain localization of TβR-I, TβR-II, TβR-III, EGFR and caveolin-1 in the plasma membrane of untreated cells or cells treated with 15-HEPE were assessed to determine the effects of 15-HEPE on the membrane microdomain localization of the TGF-β receptors.
A 15-HEPE sucrose density gradient analysis of TGF-β receptors was conducted in the plasma membranes of mink lung epithelial cell (Mv1 Lu) cells treated with 100 μM of 15-HEPE and an equal volume of dimethyl sulfoxide (DMSO) at 37° C. for 0, 1, 4, and 24 hours, and the cell lysates from these treated cells were subjected to sucrose density gradient ultracentrifugation. The sucrose gradient fractions were then analyzed by Western blot analysis using anti-TβR-I (type I TGF-β receptor—FIG. 18C), anti-TβR-II (type II TGF-β receptor—FIG. 18D), anti-TβR-III (type III TGF-β receptor, betaglycan—FIG. 18E), anti-EGFR (epidermal growth factor receptor—FIG. 18F), and anti-caveolin-1 antibodies (FIG. 18G). Fractions 4 to 5 contained lipid rafts/caveolae whereas fractions 7-10 were non-lipid raft fractions. […] Stars (★) indicate 15-HEPE increased abundance of TβR-I (24 hours) in the fraction in comparison with that of the control and shorter treatment durations (FIG. 18C). […] The triangles (▾) indicate translocation and decreased abundance of TβR-II in the fraction in comparison with control cells (FIG. 18D).

A further experiment deals with caveolin-1. Nature of the experiment: Sucrose density gradient analysis in Mv1Lu cells, caveolin-1. It counts as cell-based, mink. The conditions noted are these: 100 μM, 0, 1, 4 and 24 hours. On the procedure:
as §2, with “receptors. […]” for “receptors.”

For another experiment, the system named is NAFLD patients. Nature of the experiment: Phase IIa NAFLD study: alkaline phosphate (ALP). The class given is in vivo, human. The conditions noted are these: 2 g. On the procedure: The study was planned to include 96 evaluable patients with 32 patients randomized per treatment group.
Clinical Laboratory Safety Tests: Safety tests were performed for hematology, serum biochemistry, coagulation, lipid profile, and urinalysis: Blood and urine samples were taken as per the Study Flow Chart in Table 19 for routine hematology, serum biochemistry, coagulation and urinalysis tests, along with a Lipid Profile. All samples were analyzed in the central laboratory. All subjects were fasted for a minimum of 8 hours prior to blood sampling. […]

Where [2] appears, read: relative mRNA normalized to 36B4, 50 mg/kg PO QD Day 0-13.
[3] abbreviates: relative mRNA normalized to 36B4, 500 mg/kg PO QD Day 0-13.

Regarding `CC/C=C\CC(O)/C=C/C=C\C/C=C\C/C=C\CCCC(=O)O` (stereo not drawn) [DS102, 15-hydroxy-eicosa-5Z,8Z,11Z,13E,17Z-pentaenoic acid], the TIMP-1 gene expression in the experiment on TIMP-1 (setting [2]) was 138.30 ± 30.39; in the experiment with TIMP-1 (setting [3]), 124.80 ± 28.60. Moreover, the “Collagen Type 1 gene expression” value is recorded as 11.80 ± 1.78 with Collagen Type 1 (setting [2]) and 14.09 ± 2.88 in the experiment on Collagen Type 1 (setting [3]). In addition, in experiment [1] (Mv1Lu cells, 100 μM, 1 to 4 hours), the TβR-II translocation entry is reported as “induced TβR-II translocation”. For the same molecule, the TβR-II degradation result in experiment [1] (Mv1Lu cells, 100 μM, 24 hours) is on record as “induce degradation”. In addition, the “translocation and degradation of type II TGF-β receptors” value in experiment [1] (summary, free acid or ethyl ester form) is “induced translocation and degradation of type II TGF-β receptors”. Besides, the “localization and abundance of caveolin-1” value in the experiment on caveolin-1 is “did not change the localization and abundance”. In addition, the “alkaline phosphate (ALP)” value with NAFLD patients is given as “reduced”.
